Where two headings read alike, the source gives them in different places.
Key:
[1] = tested on: heparin, apoferritin, cellulose, papain, native and fibrillar insulin; test: FL specificity against other protein monomers; settings: protein 1.0 mg/mL
[2] = biological target: Bovine serum albumin (BSA) (Bos taurus, UniProt P02769); test: Fluorimetric titration of BSA to polyenes; assay type: binding; settings: for ΦE (quantum yield), bind / λex (emission maximum), bind: BSA solution of TPE-OH•Na2 or TPE-SO3 in aqueous phosphate buffer pH 7.0; for λex (emission maximum), bind: excitation 350 nm
Chain of Bovine serum albumin (BSA) (P02769 25-607): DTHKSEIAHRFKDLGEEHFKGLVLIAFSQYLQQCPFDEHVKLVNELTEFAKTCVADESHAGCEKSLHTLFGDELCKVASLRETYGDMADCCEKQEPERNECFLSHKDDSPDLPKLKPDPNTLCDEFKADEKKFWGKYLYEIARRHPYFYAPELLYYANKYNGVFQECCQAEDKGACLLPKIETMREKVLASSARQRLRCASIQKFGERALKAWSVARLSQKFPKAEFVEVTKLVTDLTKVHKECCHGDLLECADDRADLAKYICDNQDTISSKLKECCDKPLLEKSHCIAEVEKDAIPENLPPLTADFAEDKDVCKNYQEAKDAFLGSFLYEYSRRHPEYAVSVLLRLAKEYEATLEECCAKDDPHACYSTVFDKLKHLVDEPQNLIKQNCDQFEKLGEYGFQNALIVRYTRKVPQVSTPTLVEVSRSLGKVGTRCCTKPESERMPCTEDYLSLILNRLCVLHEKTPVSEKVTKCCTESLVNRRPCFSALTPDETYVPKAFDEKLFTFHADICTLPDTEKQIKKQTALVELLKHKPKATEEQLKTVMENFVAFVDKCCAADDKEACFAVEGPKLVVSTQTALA
Experimental: (§1) Fluorimetric titration of biomacromolecules to polyenes Bovine serum albumin (BSA) and calf thymus DNA (ctDNA) were selected as model proteins and DNA. BSA was dissolved in a pH 7.0 phosphate buffer solution (1.0 mg/ml). DNA was dissolved in deionized water (1.0 mg/ml) and filtered through a 0.45 μm filter. The actual concentration (in nucleic base) was determined by UV photometry using the extinction coefficient ε260=6600 M^−1 cm^−1.
(§2) Stock solutions of polyenes were 5×10^−4 M in water. Fluorescence titration was carried out by sequentially adding 100 μl aliquots of DNA or BSA solutions to a 100 μl stock solution of polyenes, followed by adding an aqueous phosphate buffer (10 mM, pH 7) to acquire a 10.00 ml solution. The mixtures were stirred for half an hour prior to taking their spectra.
Complexation of the water-soluble AIE TPEs 3 and 4 with calf thymus DNA (ctDNA) and bovine serum albumin (BSA) were investigated by spectrometric titrations in aqueous phosphate buffer (pH=7.0) at 25 C. Stock solutions of TPEs 3 and 4 (0.25 mM) were prepared.

amyloid-β-peptide = amyloid-β-peptide (Homo sapiens, UniProt P05067); test: FL with amyloid-β-peptide before and after aging; settings: 0.1 mg/mL amyloid-β-peptide, λex 350 nm
Chain of amyloid-β-peptide (P05067 672-711 limits assumed): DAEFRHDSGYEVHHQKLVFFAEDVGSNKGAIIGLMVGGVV

[3] = Photophysical properties in solution and aggregate states (AIE effect); assay type: physicochemical; settings: for Emission maximum wavelength (λem): excitation 350 nm
lysozyme = test: FL during lysozyme fibril formation; settings: 10, 50 and 100 μM, over 4 days
[4] = tested on: ctDNA/RNA from torula yeast/BSA; test: Fluorescence increments / binding isotherm with ctDNA, RNA and BSA; settings: 10 μg/ml ctDNA or RNA, dye 5 μM
Experimental: FIG. 8 illustrates increments of fluorescence of TPE-C2N^+ (8), N+C2-TPE-C2N^+ (9), TPE-C4N^+ (10), N+C4-TPE-C4N^+ (11) when binding with 10 μg/ml ctDNA/10 μg/ml RNA diethylaminoethanol (DEAE) salt from torula yeast/10 μg/ml RNA from torula yeast in buffer solution pH=7. Concentration of dyes: 5 μM; excitation wavelength: 350 nm. The four cationic TPE derivatives display larger FL enhancement in the presence of DNA than that of RNA.
FIG. 9 illustrates the binding isotherm of N+C2-TPE-C2N^+ (5 μM) to ctDNA/RNA from torula yeast/BSA (plot of the fluorescence intensity at 470 nm for ctDNA/RNA, and at 467 nm for BSA) in aqueous phosphate buffer (pH=7.0).

Solubility = assay type: physicochemical
[5] = Photophysical properties in solution and aggregate states (AIE effect); assay type: physicochemical; settings: for Fluorescence quantum yield (ΦF), molecularly dissolved: AN solution / AN-water mixtures with low water fraction; for Fluorescence quantum yield (ΦF), aggregated: AN/water mixture with 99% water
Description: Changes in the φF values of TBEPE in the AN/water mixtures with different water contents further confirm its AIE nature. […] Afterward the φF value starts to increase swiftly. In the AN/water mixtures with lower water fractions, TBEPE is genuinely dissolved, while in the aqueous mixtures with higher water fractions (>60%), the dye molecules cluster together due to the deterioration in the solvating power of the mixture. When the water fraction is increased to 99 vol %, the aφF value is increased to −18%, which is ˜35-fold higher than that in the pure AN solvent. The absolute φF values of the aggregates should be much higher than the relative ones given in FIG. 26A, if the light scattering caused by the Mie effect of the nanoaggregatcs is taken into consideration. […]
Dilute solutions of TPEs 1 and 2 in AN are practically non-luminescent. Addition of non-solvent water into the AN solutions can turn on the emissions of the dyes. From the molecular solution in AN to the aggregate suspension in an AN-water mixture (1:99 by volume), the fluorescent intensity of TPE 1 at 476 nm is increased by −240 fold (FIG. 11A). Its absorption maximum shifts from 310 nm in the solution to 330 nm in the suspension. The excitation maximum of TPE 1 locates at 330 nm, coinciding well with its absorption maximum. […] Evidently, the emission of TPE 1 is induced by the aggregate formation, or in other words, TPE 1 is AIE-active.
The ΦF value of TPE 1 starts to increase when the water fraction is increased to ˜50%, at which the solvating power of the mixture is decreased to such an extent that the dye molecules begin to aggregate. The ΦF value reaches ˜20% at a water content of 99%, which is ˜40-fold higher than that of its AN solution. […] Their emissions in the mixtures remain as faint as those in the water solutions.

calf thymus DNA (ctDNA) = test: Fluorimetric titration of ctDNA to polyenes; assay type: binding; settings: for Relative affinity to ctDNA versus BSA: phosphate buffer pH 7, dye 2.5 μM
Experimental: as §1, §2
Complexation of the water-soluble AIE TPEs 3 and 4 with calf thymus DNA (ctDNA) and bovine serum albumin (BSA) were investigated by spectrometric titrations in aqueous phosphate buffer (pH=7.0) at 25 C. Stock solutions of TPEs 3 and 4 (0.25 mM) were prepared. The mixture of 100 μl stock solution of 3 with 9.9 ml buffer emits faintly at 395 nm with a side band at 462 nm. Its absorption maximum locates at 311 nm, with a molar absorptivity of 12400M^−1 cm^−1. Upon addition of the DNA, FL intensity of TPE 3 increased by 5.4 fold. Meanwhile its emission maximum shifted to ˜462 nm, giving a Stokes shift as large as 134 nm. In the DNA concentration range of 0-100 μg/ml^−1, the plot of the FL intensity (1) at 462 nm as a function of DNA concentration (c) is a linear line with a correlation coefficient of 0.996. Addition of BSA to a buffer solution of TPE 3 induced a similar effect. The linear range of the I/IO−1 vs. c plot in this case is 0-50 μg/ml^−1. The excitation maximums of the solutions of TPE3 containing BSA and ctDNA both locate at 328 nm.

HG21 DNA = test: CD spectra: G-quadruplex induction by TPE derivatives; assay type: biochemical; settings: 9 μM DNA, 4.5 μM TPE derivative, Tris-HCl pH 7.5, 25 °C
Experimental: [TPE]=4.5 μM; [HG21]=9 μM and [K^+]=0.5 M.
CD spectral profiles of 9 μM DNA in 5 mM Tris-HCl buffer solutions (pH 7.5) incubated under 25° C. with four different TPE derivatives at 4.5 μM or with 0.5M K^+ ions are studied (FIG. 77). TPE derivatives 1-4 are TTAPE (Example 6), TPE-2 (chemical structure is not shown herein), TPE-3 (chemical structure is not shown herein) and TPE-C2N+ (Example 3), respectively. […] On the other hand, DNA incubated with TTAPE or the known quadruplex inducer; K^+ ions have very similar spectral profiles, while the ellipticities of DNA/TTAPE are somehow weaker than DNA/K^+.

HSA = HSA (Homo sapiens, UniProt P02768); settings: cited from earlier work
Chain of HSA (P02768 25-609): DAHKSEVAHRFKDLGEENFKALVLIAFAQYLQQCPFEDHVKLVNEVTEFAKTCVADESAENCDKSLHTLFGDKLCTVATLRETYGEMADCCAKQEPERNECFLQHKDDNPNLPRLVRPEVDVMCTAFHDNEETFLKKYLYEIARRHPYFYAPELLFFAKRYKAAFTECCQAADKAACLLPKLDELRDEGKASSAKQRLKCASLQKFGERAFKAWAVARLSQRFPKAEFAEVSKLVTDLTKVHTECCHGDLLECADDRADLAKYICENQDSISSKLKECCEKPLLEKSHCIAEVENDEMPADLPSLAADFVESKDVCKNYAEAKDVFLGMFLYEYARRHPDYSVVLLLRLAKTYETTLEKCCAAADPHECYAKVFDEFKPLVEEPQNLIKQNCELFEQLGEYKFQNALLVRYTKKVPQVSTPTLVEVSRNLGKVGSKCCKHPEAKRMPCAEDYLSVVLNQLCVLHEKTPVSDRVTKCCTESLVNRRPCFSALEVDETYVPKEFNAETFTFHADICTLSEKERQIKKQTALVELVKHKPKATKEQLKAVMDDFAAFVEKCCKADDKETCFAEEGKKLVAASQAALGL

[6] = aggregate: 99% water/AN for TPE-OMe and TPE-OH, 99% AN/water for TPE-SO3
[7] = solution: acetonitrile for TPE-OMe and TPE-OH (10 μM), water for TPE-SO3 (5 μM)

1,2-Diphenyl-1,2-bis(4,4′-(3-sulfonato)propoxyl)phenylethylene [TPE-SO3]
FL with fibrillar insulin [1]: significantly higher than other cellular proteins tested
FL with heparin, apoferritin and cellulose [1]: comparable to TPE-SO3 solution alone
FL with papain [1]: comparable to native insulin monomer
ΦE (quantum yield), bind [2]: 58.2%
λex (emission maximum), bind [2]: 472 nm
FL intensity increase upon binding with BSA ([2]; aqueous phosphate buffer, 472 nm): up to 240 times
Emission on formation of amyloid-β-peptide fibrils (after aging) (amyloid-β-peptide): increases dramatically
ΦE (quantum yield), aggr [3, 6]: 17.47%
λab (absorption maximum), aggr [3, 6]: 320 nm
Emission maximum wavelength (λem) [3, 6]: 442 nm
ΦE (quantum yield), soln [3, 7]: 0.37%
λab (absorption maximum), soln [3, 7]: 312 nm
Emission maximum wavelength (λem) [3, 7]: 398 nm
Fluorescence profile during lysozyme fibril formation (lysozyme): produces fluorescence profile corresponding to lysozyme fibrillation

CC[N+](CC)(CC)CCCCOc1ccc(C(=C(c2ccc(OCCCC[N+](CC)(CC)CC)cc2)c2ccc(OCCCC[N+](CC)(CC)CC)cc2)c2ccc(OCCCC[N+](CC)(CC)CC)cc2)cc1.[Br-].[Br-].[Br-].[Br-] [N+C4-TPE-C4N^+, N,N′,N″,N′″-[1,2-Tetrakis(1,4-phenoxybutyl)vinyl)tetrakis(triethylammonium bromide)]
Variety of FL in presence of DNA and RNA compared with TPE-C2N+ and TPE-C4N+ [4]: much larger variety of FL

BrCCOc1ccc(C(=C(c2ccc(OCCBr)cc2)c2ccc(OCCBr)cc2)c2ccc(OCCBr)cc2)cc1 [TBEPE, 1,1,2,2-tetrakis[4-(2-bromoethoxy}phenyl]ethene]
Solubility in water (Solubility): totally insoluble in water
Increase of ΦF at 99% water versus AN solution [5]: ~35 fold
Fluorescence quantum yield (ΦF), molecularly dissolved [5]: 0.5%
Fluorescence quantum yield (ΦF), aggregated [5]: 18%

BrCCOc1ccc(C(=C(c2ccccc2)c2ccc(OCCBr)cc2)c2ccccc2)cc1 [TPE 1, 1,2-Bis[4-(2-bromoethoxy)phenyl]-1,2-diphenylethene]
Solubility in water (Solubility): insoluble in water
Increase of fluorescent intensity at 476 nm, AN solution to AN-water (1:99) suspension [5]: 240 fold
Increase of ΦF at 99% water versus AN solution [5]: ~40 fold
Fluorescence quantum yield (ΦF), molecularly dissolved [5]: ~0.5%
Fluorescence quantum yield (ΦF), aggregated [5]: ~20%

CC[N+](CC)(CC)CCOc1ccc(/C(=C(\c2ccccc2)c2ccc(OCC[N+](CC)(CC)CC)cc2)c2ccccc2)cc1.[Br-].[Br-] [TPE-C2N^+, N,N′-[1,2-Diphenyl-1,2-bis(1,4-phenoxyethyl)vinyl]bis(triethylammonium bromide)]
Linear range of FL intensity vs DNA concentration (calf thymus DNA (ctDNA)): 0-100 μg/ml^−1
FL intensity increase upon addition of DNA (calf thymus DNA (ctDNA); phosphate buffer pH 7.0, 25 C): 5.4 fold
Relative affinity to ctDNA versus BSA (calf thymus DNA (ctDNA)): better affinity to ctDNA than BSA
Solubility in water (Solubility): soluble in water
G-quadruplex induction (CD spectral profile) (HG21 DNA): spectral profile comparable to the negative control
Linear range of FL intensity vs BSA concentration [2]: 0-50 μg/ml^−1

CC[N+](CC)(CC)CCCCOc1ccc(/C(=C(\c2ccccc2)c2ccc(OCCCC[N+](CC)(CC)CC)cc2)c2ccccc2)cc1.[Br-].[Br-] [TPE-C4N^+, N,N′-[1,2-Diphenyl-1,2-bis(1,4-phenoxybutyl)vinyl]bis(triethylammonium bromide)]
Linear range of FL intensity vs DNA concentration (calf thymus DNA (ctDNA)): 0-20 μg/ml^−1
I/Io (calf thymus DNA (ctDNA); 300 μg/ml ct DNA added): 16.3
Relative affinity to ctDNA versus BSA (calf thymus DNA (ctDNA)): gives the opposite result
Solubility in water (Solubility): soluble in water
Linear range of FL intensity vs BSA concentration [2]: 0-40 μg/ml^−1
I/Io ([2]; 500 μg/ml BSA added): 23.8

O=C(O)c1ccc(/C(=C(\c2ccccc2)c2ccc(C(=O)O)cc2)c2ccccc2)cc1 [TPE-COOH, 4,4′-(1,2-diphenylvinyl)di(phenylcarboxylic acid)]
Solubility in water (Solubility): insoluble

Oc1ccc(/C(=C(\c2ccccc2)c2ccc(O)cc2)c2ccccc2)cc1 [TPE-OH, 1,2-Bis(4-hydroxyphenyl)-1,2-diphenylethylene]
ΦE (quantum yield), bind [2]: 35.7%
λex (emission maximum), bind [2]: 467 nm
Linear range of FL intensity vs BSA concentration ([2]; aqueous phosphate buffer pH 7.0): 0 to 10 µg/mL
ΦE (quantum yield), aggr [3, 6]: 8.90%
λab (absorption maximum), aggr [3, 6]: 316 nm
Emission maximum wavelength (λem) [3, 6]: 439 nm
ΦE (quantum yield), soln [3, 7]: 0.57%
λab (absorption maximum), soln [3, 7]: 312 nm
Emission maximum wavelength (λem) [3, 7]: 393 nm

COc1ccc(C(=C(c2ccccc2)c2ccc(OC)cc2)c2ccccc2)cc1 [TPE-OMe, 1,2-Bis(4-methoxyphenyl)-1,2diphenylethene]
ΦE (quantum yield), aggr [3, 6]: 15.30%
λab (absorption maximum), aggr [3, 6]: 330 nm
Emission maximum wavelength (λem) [3, 6]: 477 nm
ΦE (quantum yield), soln [3, 7]: 0.11%
λab (absorption maximum), soln [3, 7]: 311 nm
Emission maximum wavelength (λem) [3, 7]: 394 nm

Coomassie Brilliant Blue
Staining reaction (soaking) time (HSA): more than 6 hours
